Reference: patent US10738028B2, “Spiro three-membered ring, spiro five-membered ring peptide deformylase inhibitor and use thereof in antibacteria and anti-tumor” (priority 2016, dated 2020)

What was measured:
Assay type in all cases: cell-based
[1] = test system: PC3 prostate cancer cell line; assay: CCK-8 proliferation inhibition; conditions: 72 hours
Method in brief: (§1)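 Proliferation was measured with 1:10 diluted CCK-8 after a 72-hour incubation with the inhibitors at various final concentrations, using 1‰ DMSO as the control. Cells were plated at 2000 per well. Culture media contained 10% newborn bovine serum: 1640 for Jurkat and MGC-803, F12 for PC3, DMEM high glucose for MCF-7.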

[2] = test system: HL60 acute myeloid leukemia cell line; assay: CCK-8 proliferation inhibition; conditions: Homo sapiens, HL-60, 72 hours
Method in brief: (§2)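 Plating at 2000 cells/well, then incubation overnight at 37° C. Next, a range of compound concentrations for 72 hours (control 1‰ DMSO). Finally, medium decanted and CCK-8 diluted 1:10 added.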

[3] = test system: BEL-7402 liver cancer cell line; assay: CCK-8 proliferation inhibition
Method in brief: as §2

[4] = test system: Hela cervical cancer cell line; assay: CCK-8 proliferation inhibition; conditions: Homo sapiens, 72 hours
Method in brief: as §2

[5] = test system: MGC-803 gastric cancer cell line; assay: CCK-8 proliferation inhibition
Method in brief: as §1

[6] = test system: Jurkat T cell leukemia cell line; assay: CCK-8 proliferation inhibition; conditions: Homo sapiens, 72 hours
Method in brief: as §1

[7] = test system: A549 lung cancer cell line; assay: CCK-8 proliferation inhibition
Method in brief: as §2

[8] = test system: MCF-7 breast cancer cell line; assay: CCK-8 proliferation inhibition; conditions: Homo sapiens, MCF7, 72 hours
Method in brief: as §1

[9] = test system: SAOS-2 osteosarcoma cell line; assay: CCK-8 proliferation inhibition; conditions: Homo sapiens, 72 hours, read-out: IC50 Steosarcoma SAOS-2
Method in brief: as §1

[10] = test system: Moraxella catarrhalis (BCA); assay: MIC, two-fold agar dilution (CLSI), clinical isolates
Method in brief: (§3)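 Susceptibility was tested using CLSI two-fold agar dilution against the strains examined.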

[11] = test system: methicillin-resistant Staphylococcus epidermidis (MRSE); assay: as above
Method in brief: as §3

[12] = test system: methicillin-sensitive Staphylococcus aureus (MSSA); assay: as above
Method in brief: as §3

[13] = test system: methicillin-resistant Staphylococcus aureus (MRSA); assay: as above
Method in brief: as §3

[14] = test system: Enterococcus faecalis (EFA); assay: as above
Method in brief: as §3

[15] = test system: Streptococcus pneoumoniae (SPN); assay: as above
Method in brief: as §3

[16] = test system: methicillin-sensitive Staphylococcus epidermidis (MSSE); assay: as above
Method in brief: as §3

[17] = test system: Enterococcus faecium (EFM); assay: as above
Method in brief: as §3

[18] = test system: Escherichia coli (including ESBLs, non-ESBLs); assay: as above
Method in brief: as §3

[19] = test system: HCT-116 colorectal cancer cell line; assay: CCK-8 proliferation inhibition; conditions: 72 hours, CCK-8
Method in brief: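 Cells were plated overnight at 2000 cells/well, then compound in culture medium was added at a range of final concentrations. After 72 hours in a CO2 incubator, medium was replaced with 1:10 CCK-8 solution for the read-out.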

[20] = MIC in vitro anti-bacterial experiments, Gram-positive bacteria; conditions: lowest MIC reached; read-out: minimum inhibitory concentration against Gram-positive bacteria
Method in brief: as §3

[21] = concentration of 30 μM, 72 hours, 30 µM

## O=C(C[C@@H](CC1CCCC1)C(=O)N1CC2(CC2)C[C@H]1C(=O)Nc1ccc(F)cn1)NO [Example 64]
[1]
  IC50: 6.17 µM
[2]
  IC50: 1.21 µM
[3]; Homo sapiens, Bel-7402, 72 hours
  IC50: 5 µM
[3]; [21]
  Inhibition of proliferation, Liver cancer BEL-7402: 81%
[4]
  IC50: 11.5 µM
[5]; Homo sapiens, MGC-803, 72 h, concentration of 30 μM
  inhibition at 30 µM: > 50%
[5]; Homo sapiens, MGC-803, 72 hours
  IC50: 6.11 µM
[5]; [21]
  Inhibition of proliferation, Gastric cancer MGC-803: 63%
[6]
  IC50: 7.61 µM
[7]; Homo sapiens, A549, 72 h, concentration of 30 μM
  inhibition at 30 µM: > 50%
[7]; Homo sapiens, A549, 72 hours
  IC50: 4.86 µM
[7]; [21]
  Inhibition of proliferation, Lung cancer A549: 61%
[8]
  IC50: 6.62 µM
[9]
  IC50: 2 µM
[10]; clinical isolate BCA 14-1
  Anti-bacterial activity (MIC), strain BCA 14-1: 0.25 µg/mL
[10]; clinical isolate BCA 14-4
  Anti-bacterial activity (MIC), strain BCA 14-4: 1 µg/mL
[10]; clinical isolate BCA 14-5
  Anti-bacterial activity (MIC), strain BCA 14-5: 1 µg/mL
[10]; clinical isolate BCA 14-6
  Anti-bacterial activity (MIC), strain BCA 14-6: 1 µg/mL
[10]; clinical isolate BCA 14-7
  Anti-bacterial activity (MIC), strain BCA 14-7: 1 µg/mL
[10]; clinical isolate BCA 14-8
  Anti-bacterial activity (MIC), strain BCA 14-8: 0.125 µg/mL
[10]; clinical isolate BCA 14-10
  Anti-bacterial activity (MIC), strain BCA 14-10: 0.125 µg/mL
[11]; clinical isolate MRSE 15-1
  Anti-bacterial activity (MIC), strain MRSE 15-1: 0.06 µg/mL
[11]; clinical isolate MRSE 15-2
  Anti-bacterial activity (MIC), strain MRSE 15-2: 0.06 µg/mL
[11]; clinical isolate MRSE 15-3
  Anti-bacterial activity (MIC), strain MRSE 15-3: 0.06 µg/mL
[11]; clinical isolate MRSE 15-7
  Anti-bacterial activity (MIC), strain MRSE 15-7: 0.06 µg/mL
[12]; clinical isolate MSSA 15-3
  Anti-bacterial activity (MIC), strain MSSA 15-3: 0.06 µg/mL
[12]; clinical isolate MSSA 15-4
  Anti-bacterial activity (MIC), strain MSSA 15-4: 0.03 µg/mL
[12]; clinical isolate MSSA 15-5
  Anti-bacterial activity (MIC), strain MSSA 15-5: 0.03 µg/mL
[12]; clinical isolate MSSA 15-6
  Anti-bacterial activity (MIC), strain MSSA 15-6: 16 µg/mL
[13]; clinical isolate MRSA 15-1
  Anti-bacterial activity (MIC), strain MRSA 15-1: 0.03 µg/mL
[13]; clinical isolate MRSA 15-2
  Anti-bacterial activity (MIC), strain MRSA 15-2: 0.06 µg/mL
[13]; clinical isolate MRSA 15-3
  Anti-bacterial activity (MIC), strain MRSA 15-3: 0.03 µg/mL
[13]; clinical isolate MRSA 15-4
  Anti-bacterial activity (MIC), strain MRSA 15-4: 0.06 µg/mL
[14]; clinical isolate EFA 15-1
  Anti-bacterial activity (MIC), strain EFA 15-1: 32 µg/mL
[14]; clinical isolate EFA 15-2
  Anti-bacterial activity (MIC), strain EFA 15-2: 32 µg/mL
[14]; clinical isolate EFA 15-3
  Anti-bacterial activity (MIC), strain EFA 15-3: 32 µg/mL
[14]; clinical isolate EFA 15-4
  Anti-bacterial activity (MIC), strain EFA 15-4: 32 µg/mL
[14]; clinical isolate EFA 15-5
  Anti-bacterial activity (MIC), strain EFA 15-5: 32 µg/mL
[14]; clinical isolate EFA 15-6
  Anti-bacterial activity (MIC), strain EFA 15-6: 32 µg/mL
[14]; clinical isolate EFA 15-9
  Anti-bacterial activity (MIC), strain EFA 15-9: 4 µg/mL
[15]; clinical isolate SPN 16-2
  Anti-bacterial activity (MIC), strain SPN 16-2: 0.125 µg/mL
[15]; clinical isolate SPN 16-4
  Anti-bacterial activity (MIC), strain SPN 16-4: 0.125 µg/mL
[16]; clinical isolate MSSE 15-3
  Anti-bacterial activity (MIC), strain MSSE 15-3: 0.03 µg/mL
[16]; clinical isolate MSSE 15-4
  Anti-bacterial activity (MIC), strain MSSE 15-4: 0.06 µg/mL
[16]; clinical isolate MSSE 15-5
  Anti-bacterial activity (MIC), strain MSSE 15-5: 0.06 µg/mL
[16]; clinical isolate MSSE 15-6
  Anti-bacterial activity (MIC), strain MSSE 15-6: > 0.008 µg/mL
[17]; clinical isolate EFM 15-1
  Anti-bacterial activity (MIC), strain EFM 15-1: 32 µg/mL
[17]; clinical isolate EFM 15-2
  Anti-bacterial activity (MIC), strain EFM 15-2: 32 µg/mL
[17]; clinical isolate EFM 15-3
  Anti-bacterial activity (MIC), strain EFM 15-3: 32 µg/mL
[17]; clinical isolate EFM 15-4
  Anti-bacterial activity (MIC), strain EFM 15-4: 1 µg/mL
[17]; clinical isolate EFM 15-5
  Anti-bacterial activity (MIC), strain EFM 15-5: 1 µg/mL
[17]; clinical isolate EFM 15-6
  Anti-bacterial activity (MIC), strain EFM 15-6: 1 µg/mL
[18]; clinical isolate ECO+ 15-1
  Anti-bacterial activity (MIC), strain ECO+ 15-1: 16 µg/mL
[18]; clinical isolate ECO+ 15-2
  Anti-bacterial activity (MIC), strain ECO+ 15-2: 32 µg/mL
[18]; clinical isolate ECO+ 15-3
  Anti-bacterial activity (MIC), strain ECO+ 15-3: 16 µg/mL
[18]; clinical isolate ECO+ 15-4
  Anti-bacterial activity (MIC), strain ECO+ 15-4: 16 µg/mL
[18]; clinical isolate ECO− 15-1
  Anti-bacterial activity (MIC), strain ECO− 15-1: 16 µg/mL
[18]; clinical isolate ECO− 15-2
  Anti-bacterial activity (MIC), strain ECO− 15-2: 16 µg/mL
[18]; clinical isolate ECO− 15-3
  Anti-bacterial activity (MIC), strain ECO− 15-3: 32 µg/mL
[18]; clinical isolate ECO− 15-4
  Anti-bacterial activity (MIC), strain ECO− 15-4: 16 µg/mL
[19]; Homo sapiens, HCT-116
  IC50: 4.88 µM
[19]; concentration of 30 μM, 30 µM
  HCT116 inhibition rate/%: 87%
[20]
  MIC: < 0.008 µg/mL
